Test results: US11178871B2, “Herbicidal pyrimidine compounds” (BASF SE, priority 2016, dated 2021)

Key:
Type in all cases: in vivo
Alopecurus myosuroides = test: greenhouse test, post-emergence treatment, ALOMY; settings: post-emergence
Description: (§1) The culture containers used were plastic flowerpots containing loamy sand with approximately 3.0% of humus as the substrate. The seeds of the test plants were sown separately for each species.
(§2) For the post-emergence treatment, the test plants were first grown to a height of 3 to 15 cm, depending on the plant habit, and only then treated with the active ingredients which had been suspended or emulsified in water. For this purpose, the test plants were either sown directly and grown in the same containers, or they were first grown separately as seedlings and transplanted into the test containers a few days prior to treatment.
(§3) Depending on the species, the plants were kept at 10-25° C. or 20-35° C., respectively.
(§4) The test period extended over 2 to 4 weeks. During this time, the plants were tended, and their response to the individual treatments was evaluated.
(§5) Evaluation was carried out using a scale from 0 to 100. 100 means no emergence of the plants, or complete destruction of at least the aerial moieties, and 0 means no damage, or normal course of growth. A good herbicidal activity is given at values of at least 70 and a very good herbicidal activity is given at values of at least 85.
(§6) The plants used in the greenhouse experiments were of the following species: […]

Avena fatua = test: greenhouse test, post-emergence treatment, AVEFA
Description: as §1, §2, §3, §4, §5, §6

Apera spica-venti = test: greenhouse test, pre-emergence treatment, APESV
Description: as §1
(§7) For the pre-emergence treatment, the active ingredients, which had been suspended or emulsified in water, were applied directly after sowing by means of finely distributing nozzles. The containers were irrigated gently to promote germination and growth and subsequently covered with transparent plastic hoods until the plants had rooted. This cover caused uniform germination of the test plants, unless this had been impaired by the active ingredients.
as §3, §4, §5, §6

Echinocloa crus-galli [1] = test: greenhouse test, post-emergence treatment, ECHCG; settings: post-emergence
Description: as §1, §2, §3, §4, §5, §6

Echinocloa crus-galli [2] = test: greenhouse test, pre-emergence treatment, ECHCG
Description: as §1, §7, §3, §4, §5, §6

Cc1ncoc1-c1nc(C2CC2)ncc1-c1ccc(C(F)(F)F)cc1Cl [Ex. 264]
herbicidal activity (Alopecurus myosuroides; 500 g/ha): very good (a very good herbicidal activity is given at values of at least 85) | herbicidal activity (Avena fatua; 500 g/ha): very good (a very good herbicidal activity is given at values of at least 85)

Clc1ccccc1-c1cnc(C2CC2)nc1-c1cocn1 [Ex. 215]
herbicidal activity (Alopecurus myosuroides; 2000 g/ha): very good (a very good herbicidal activity is given at values of at least 85) | herbicidal activity (Apera spica-venti; 2000 g/ha): very good (a very good herbicidal activity is given at values of at least 85)

CC(C)(C)/C=C/c1nc(C2CC2)ncc1-c1ccccc1Cl [Ex. 95]
herbicidal activity (Echinocloa crus-galli [1]; 2000 g/ha): very good (a very good herbicidal activity is given at values of at least 85) | herbicidal activity (Alopecurus myosuroides; 2000 g/ha): very good (a very good herbicidal activity is given at values of at least 85) | herbicidal activity (Apera spica-venti; 2000 g/ha): very good (a very good herbicidal activity is given at values of at least 85)

Fc1cccc(Cl)c1-c1cnc(C2CC2)nc1-c1ccco1 [Ex. 60]
herbicidal activity (Alopecurus myosuroides; 1000 g/ha): very good (a very good herbicidal activity is given at values of at least 85) | herbicidal activity (Avena fatua; 1000 g/ha): very good (a very good herbicidal activity is given at values of at least 85)

Cc1ccc(-c2nc(C3CC3)ncc2-c2cc(F)ccc2C)o1 [Ex. 110]
herbicidal activity (Echinocloa crus-galli [1]; 1000 g/ha): good (A good herbicidal activity is given at values of at least 70)

Cc1ccc(-c2nc(C3CC3)ncc2-c2cc(F)c(F)cc2Cl)o1 [Ex. 79]
herbicidal activity (Alopecurus myosuroides; 1000 g/ha): very good (a very good herbicidal activity is given at values of at least 85) | herbicidal activity (Avena fatua; 1000 g/ha): very good (a very good herbicidal activity is given at values of at least 85)

Clc1ccccc1-c1cnc(C2CC2)nc1CC1=CCOCC1 [Ex. 104]
herbicidal activity (Echinocloa crus-galli [1]; 2000 g/ha): good (A good herbicidal activity is given at values of at least 70) | herbicidal activity (Alopecurus myosuroides; 2000 g/ha): very good (a very good herbicidal activity is given at values of at least 85) | herbicidal activity (Echinocloa crus-galli [2]; 2000 g/ha): good (A good herbicidal activity is given at values of at least 70) | herbicidal activity (Apera spica-venti; 2000 g/ha): very good (a very good herbicidal activity is given at values of at least 85)

N#Cc1csc(-c2nc(C3CC3)ncc2-c2ccccc2Cl)c1 [Ex. 126]
herbicidal activity (Echinocloa crus-galli [1]; 2000 g/ha): very good (a very good herbicidal activity is given at values of at least 85)

OC1(c2nc(C3CC3)ncc2-c2ccccc2Cl)CCC1 [Ex. 143]
herbicidal activity (Echinocloa crus-galli [1]; 2000 g/ha): very good (a very good herbicidal activity is given at values of at least 85)

OC(Cc1nc(C2CC2)ncc1-c1ccccc1Cl)c1nc(Cl)ccc1Cl (stereo not shown) [Ex. 256]
herbicidal activity (Echinocloa crus-galli [1]; 2000 g/ha): very good (a very good herbicidal activity is given at values of at least 85) | herbicidal activity (Echinocloa crus-galli [2]; 2000 g/ha): very good (a very good herbicidal activity is given at values of at least 85) | herbicidal activity (Apera spica-venti; 2000 g/ha): very good (a very good herbicidal activity is given at values of at least 85)

Cc1ccoc1-c1nc(C2CC2)ncc1-c1ccccc1I [Ex. 77]
herbicidal activity (Alopecurus myosuroides; 1000 g/ha): very good (a very good herbicidal activity is given at values of at least 85) | herbicidal activity (Avena fatua; 1000 g/ha): very good (a very good herbicidal activity is given at values of at least 85)

Cc1nc(-c2nc(C3CC3)ncc2-c2ccccc2Br)co1 [Ex. 288]
herbicidal activity (Alopecurus myosuroides; 2000 g/ha): very good (a very good herbicidal activity is given at values of at least 85)

Clc1ccccc1-c1cnc(C2CC2)nc1CCc1ccco1 [Ex. 102]
herbicidal activity (Echinocloa crus-galli [1]; 2000 g/ha): very good (a very good herbicidal activity is given at values of at least 85)

Fc1ccc(-c2cnc(C3CC3)nc2-c2cc3cc(Cl)ccc3o2)c(Cl)c1 [Ex. 44]
herbicidal activity (Echinocloa crus-galli [1]; 1000 g/ha): very good (a very good herbicidal activity is given at values of at least 85) | herbicidal activity (Avena fatua; 1000 g/ha): very good (a very good herbicidal activity is given at values of at least 85)

O=C(O)C(O)Cc1nc(C2CC2)ncc1-c1ccccc1Cl (stereo not shown) [Ex. 97]
herbicidal activity (Echinocloa crus-galli [1]; 2000 g/ha): very good (a very good herbicidal activity is given at values of at least 85) | herbicidal activity (Apera spica-venti; 2000 g/ha): very good (a very good herbicidal activity is given at values of at least 85)

Cc1ccc(-c2nc(C3CC3)ncc2-c2ccccc2C)o1 [Ex. 120]
herbicidal activity (Alopecurus myosuroides; 1000 g/ha): good (A good herbicidal activity is given at values of at least 70)

OC1(Cc2nc(C3CC3)ncc2-c2ccccc2Cl)COC1 [Ex. 73]
herbicidal activity (Alopecurus myosuroides; 2000 g/ha): good (A good herbicidal activity is given at values of at least 70)

COC(=O)C(O)c1nc(C2CC2)ncc1-c1ccccc1Cl (stereo not shown) [Ex. 220]
herbicidal activity (Echinocloa crus-galli [2]; 1000 g/ha): good (A good herbicidal activity is given at values of at least 70)

OC1(Cc2nc(C3CC3)ncc2-c2ccccc2Br)COC1 [Ex. 155]
herbicidal activity (Echinocloa crus-galli [1]; 2000 g/ha): very good (a very good herbicidal activity is given at values of at least 85) | herbicidal activity (Alopecurus myosuroides; 2000 g/ha): very good (a very good herbicidal activity is given at values of at least 85)

COc1cccc(-c2nc(C3CC3)ncc2-c2ccccc2Cl)c1 [Ex. 125]
herbicidal activity (Echinocloa crus-galli [1]; 500 g/ha): very good (a very good herbicidal activity is given at values of at least 85)

Clc1ccccc1-c1cnc(C2CC2)nc1/C=C/c1ccco1 [Ex. 94]
herbicidal activity (Alopecurus myosuroides; 2000 g/ha): very good (a very good herbicidal activity is given at values of at least 85) | herbicidal activity (Avena fatua; 2000 g/ha): very good (a very good herbicidal activity is given at values of at least 85) | herbicidal activity (Apera spica-venti; 2000 g/ha): very good (a very good herbicidal activity is given at values of at least 85)

FC(F)(F)c1ccc(-c2nc(C3CC3)ncc2-c2ccccc2Cl)s1 [Ex. 216]
herbicidal activity (Echinocloa crus-galli [1]; 1000 g/ha): very good (a very good herbicidal activity is given at values of at least 85) | herbicidal activity (Alopecurus myosuroides; 1000 g/ha): very good (a very good herbicidal activity is given at values of at least 85) | herbicidal activity (Apera spica-venti; 1000 g/ha): very good (a very good herbicidal activity is given at values of at least 85)

CCc1ncc(-c2ccccc2Br)c(-c2ccoc2)n1 [Ex. 63]
herbicidal activity (Echinocloa crus-galli [1]; 1000 g/ha): very good (a very good herbicidal activity is given at values of at least 85)

OC(Cc1nc(C2CC2)ncc1-c1ccccc1Cl)c1ccccc1 (stereo not shown) [Ex. 66]
herbicidal activity (Echinocloa crus-galli [1]; 2000 g/ha): very good (a very good herbicidal activity is given at values of at least 85)

CC(=O)OC(c1nc(C2CC2)ncc1-c1ccccc1Cl)C(C)(C)OC(C)=O (stereo not shown) [Ex. 274]
herbicidal activity (Echinocloa crus-galli [1]; 1000 g/ha): very good (a very good herbicidal activity is given at values of at least 85) | herbicidal activity (Alopecurus myosuroides; 1000 g/ha): very good (a very good herbicidal activity is given at values of at least 85) | herbicidal activity (Echinocloa crus-galli [2]; 1000 g/ha): very good (a very good herbicidal activity is given at values of at least 85) | herbicidal activity (Apera spica-venti; 1000 g/ha): very good (a very good herbicidal activity is given at values of at least 85)

Clc1ccccc1-c1cnc(C2CC2)nc1COCc1ccccc1 [Ex. 21]
herbicidal activity (Alopecurus myosuroides; 1000 g/ha): very good (a very good herbicidal activity is given at values of at least 85) | herbicidal activity (Apera spica-venti; 1000 g/ha): very good (a very good herbicidal activity is given at values of at least 85)

CC(C)=CC=Cc1nc(C2CC2)ncc1-c1ccccc1Cl [Ex. 224]
herbicidal activity (Echinocloa crus-galli [1]; 2000 g/ha): very good (a very good herbicidal activity is given at values of at least 85) | herbicidal activity (Alopecurus myosuroides; 2000 g/ha): very good (a very good herbicidal activity is given at values of at least 85) | herbicidal activity (Echinocloa crus-galli [2]; 2000 g/ha): very good (a very good herbicidal activity is given at values of at least 85) | herbicidal activity (Apera spica-venti; 2000 g/ha): very good (a very good herbicidal activity is given at values of at least 85)

Brc1ccccc1-c1cnc(C2CC2)nc1-c1ccco1 [Ex. 34]
herbicidal activity (Echinocloa crus-galli [1]; 2000 g/ha): very good (a very good herbicidal activity is given at values of at least 85) | herbicidal activity (Alopecurus myosuroides; 2000 g/ha): good (A good herbicidal activity is given at values of at least 70) | herbicidal activity (Echinocloa crus-galli [2]; 2000 g/ha): good (A good herbicidal activity is given at values of at least 70) | herbicidal activity (Apera spica-venti; 2000 g/ha): very good (a very good herbicidal activity is given at values of at least 85)

CCOP(=O)(OCC)C(OS(C)(=O)=O)c1nc(C2CC2)ncc1-c1ccccc1Cl (stereo not shown) [Ex. 89]
herbicidal activity (Alopecurus myosuroides; 2000 g/ha): very good (a very good herbicidal activity is given at values of at least 85) | herbicidal activity (Avena fatua; 2000 g/ha): good (A good herbicidal activity is given at values of at least 70) | herbicidal activity (Apera spica-venti; 2000 g/ha): good (A good herbicidal activity is given at values of at least 70)

OC(c1nc(C2CC2)ncc1-c1ccccc1Cl)C(O)c1c(Cl)ccc(Cl)c1Cl (stereo not shown) [Ex. 240]
herbicidal activity (Echinocloa crus-galli [2]; 2000 g/ha): very good (a very good herbicidal activity is given at values of at least 85) | herbicidal activity (Apera spica-venti; 2000 g/ha): very good (a very good herbicidal activity is given at values of at least 85)

CC(O)c1nc(C2CC2)ncc1-c1ccc(F)cc1Cl (stereo not shown) [Ex. 112]
herbicidal activity (Echinocloa crus-galli [1]; 1000 g/ha): good (A good herbicidal activity is given at values of at least 70)

CC(C)(O)c1nc(C2CC2)ncc1-c1ccc(F)cc1Cl [Ex. 135]
herbicidal activity (Alopecurus myosuroides; 500 g/ha): good (A good herbicidal activity is given at values of at least 70)

Cc1ccc(-c2nc(C3CC3)ncc2-c2ccc(F)cc2I)o1 [Ex. 81]
herbicidal activity (Alopecurus myosuroides; 1000 g/ha): very good (a very good herbicidal activity is given at values of at least 85) | herbicidal activity (Avena fatua; 1000 g/ha): very good (a very good herbicidal activity is given at values of at least 85)

Cc1ccc(-c2nc(C3CC3)ncc2-c2ccccc2Cl)o1 [Ex. 26]
herbicidal activity (Echinocloa crus-galli [1]; 2000 g/ha): very good (a very good herbicidal activity is given at values of at least 85) | herbicidal activity (Alopecurus myosuroides; 2000 g/ha): very good (a very good herbicidal activity is given at values of at least 85) | herbicidal activity (Echinocloa crus-galli [2]; 2000 g/ha): very good (a very good herbicidal activity is given at values of at least 85) | herbicidal activity (Apera spica-venti; 2000 g/ha): very good (a very good herbicidal activity is given at values of at least 85)
